The record followed here is patent publication US20030171579A1, “Urethane derivatives” (priority 2003, published 2003).

One series addresses TF/VIIa (Homo sapiens, UniProt P08709). Put plainly: Inhibition of TF/VIIa ("Affinity to receptors"). It is filed as biochemical. From the text:
The inhibition of factor VIIa by the compounds according to the invention and the measurement of the anticoagulant and antithrombotic activity can be determined by conventional in-vitro or in-vivo methods. A conventional method for the measurement of the inhibition of factor VIIa is described, for example, by H. F. Ronning et al. in Thrombosis Research 1996, 84, 73-81.

The target in the next series is factor Xa, human (Homo sapiens, UniProt P00742). Put plainly: Inhibition of factor Xa ("Affinity to receptors"). It is filed as biochemical. From the text:
The inhibition of factor Xa by the compounds according to the invention and the measurement of the anticoagulant and antithrombotic activity can be determined by conventional in-vitro or in-vivo methods. A suitable method is described, for example, by J. Hauptmann et al. in Thrombosis and Haemostasis 1990, 63, 220-223.
The inhibition of factor Xa can be measured, for example, by the method of T. Hara et al. in Thromb. Haemostas. 1994, 71, 314-319.

factor Xa, human, sequence (P00742 235-488 limits assumed): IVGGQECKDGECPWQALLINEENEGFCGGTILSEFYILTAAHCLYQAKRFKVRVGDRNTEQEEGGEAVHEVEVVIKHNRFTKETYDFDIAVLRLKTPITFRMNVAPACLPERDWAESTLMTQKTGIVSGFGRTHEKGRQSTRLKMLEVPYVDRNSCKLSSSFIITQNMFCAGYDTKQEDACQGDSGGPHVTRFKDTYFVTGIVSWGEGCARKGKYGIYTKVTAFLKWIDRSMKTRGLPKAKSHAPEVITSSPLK
factor Xa, human, sequence (P00742 41-179 limits assumed): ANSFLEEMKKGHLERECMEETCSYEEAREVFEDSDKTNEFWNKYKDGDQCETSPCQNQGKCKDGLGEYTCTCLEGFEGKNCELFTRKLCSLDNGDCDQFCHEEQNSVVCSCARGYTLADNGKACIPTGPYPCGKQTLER
TF/VIIa, sequence (P08709 213-466 limits assumed): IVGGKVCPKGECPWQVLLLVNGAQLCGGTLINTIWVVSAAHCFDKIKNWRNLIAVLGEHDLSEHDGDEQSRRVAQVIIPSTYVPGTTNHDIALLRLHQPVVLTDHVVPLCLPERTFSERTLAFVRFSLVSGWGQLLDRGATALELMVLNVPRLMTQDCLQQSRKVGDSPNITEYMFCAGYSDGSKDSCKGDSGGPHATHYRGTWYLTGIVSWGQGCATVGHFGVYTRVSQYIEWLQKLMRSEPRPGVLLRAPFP
TF/VIIa, sequence (P08709 61-212 limits assumed): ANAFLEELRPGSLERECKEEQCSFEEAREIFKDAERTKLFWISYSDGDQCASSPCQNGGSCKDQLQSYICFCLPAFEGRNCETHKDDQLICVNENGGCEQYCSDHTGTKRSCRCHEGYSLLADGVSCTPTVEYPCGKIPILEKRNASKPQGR
TF/VIIa, sequence (P13726 33-295 partner): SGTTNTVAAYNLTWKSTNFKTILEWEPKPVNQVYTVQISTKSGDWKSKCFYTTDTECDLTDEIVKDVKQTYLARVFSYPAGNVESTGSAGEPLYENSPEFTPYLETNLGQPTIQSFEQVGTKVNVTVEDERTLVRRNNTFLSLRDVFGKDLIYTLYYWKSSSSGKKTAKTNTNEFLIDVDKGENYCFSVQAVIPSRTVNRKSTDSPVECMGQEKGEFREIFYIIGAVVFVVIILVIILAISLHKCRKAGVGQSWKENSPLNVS

`CS(=O)(=O)c1ccccc1-c1ccc(NC(=O)N(Cc2cccc(C(=N)N)c2)c2ccccc2)cc1` [Example 6.3, 1-(3-amidinobenzyl)-3-(2′-methylsulfonylbiphenyl-4-yl)-1-phenylurea]: the IC50 (in general, the concentration needed to halve the response being measured) on TF/VIIa was 70 nM; against factor Xa, human it was 300 nM.
For `CS(=O)(=O)c1ccccc1-c1ccc(NC(=O)N(Cc2ccccc2)Cc2cccc(C(=N)N)c2)cc1` [1-(3-amidinobenzyl)-3-(2′-methylsulfonylbiphenyl-4-yl)-1-benzylurea], the IC50 against TF/VIIa came to 26 nM; at factor Xa, human, 80 nM.
Take `CCCN(Cc1cccc(C(=N)N)c1)C(=O)Nc1ccc(-c2ccccc2S(N)(=O)=O)cc1` [Example 3.3, 1-(3-amidino-benzyl)-3-(2′-sulfamoylbiphenyl-4-yl)-1-propylurea]: the melting point (in general, the temperature of the solid-liquid transition) lay in the range of 166 to 167 °C. Moreover, the IC50 on TF/VIIa was 80 nM. The molecule also had an IC50 against factor Xa, human of 140 nM.
With `N=C(N)c1cccc(CN(C(=O)Nc2ccc(-c3ccccc3S(N)(=O)=O)cc2)c2ccccc2)c1` [Example 5.3, 1-(3-amidinobenzyl)-3-(2′-sulfamoylbiphenyl-4-yl)-1-phenylurea], the melting point lay within 201 to 202 °C. At TF/VIIa, this molecule displayed an IC50 of 100 nM. Further, the IC50 at factor Xa, human amounted to 330 nM.
On to `CCCN(Cc1cccc(C(=N)N)c1)C(=O)Nc1ccc(-c2ccccc2S(C)(=O)=O)cc1` [Example 4.3, 1-(3-amidino-benzyl)-3-(2′-methylsulfonylbiphenyl-4-yl)-1-propylurea], for which the IC50 stood at 30 nM on TF/VIIa and 100 nM against factor Xa, human.
